Results: patent publication US6124305A, “Use of N-(substituted glycyl)-2-cyanopyrrolidines in inhibiting dipeptidyl peptidase-IV” (Novartis AG, priority 1999, dated 2000)
Where a name gives a salt, the structure may show the parent alone.

Legend:
human plasma DPP-IV = molecular target: T1, human plasma DPP-IV (Homo sapiens, UniProt P27487); assay: human plasma DPP-IV inhibition assay; type: biochemical; details: H-Glycine-Proline-AMC substrate, pH 7.8, room temperature, 20 min
T1 construct: DPP-IV activity in human and rat plasma; from tissue; host or cells: human plasma
T1 sequence (P27487 39-766 limits assumed): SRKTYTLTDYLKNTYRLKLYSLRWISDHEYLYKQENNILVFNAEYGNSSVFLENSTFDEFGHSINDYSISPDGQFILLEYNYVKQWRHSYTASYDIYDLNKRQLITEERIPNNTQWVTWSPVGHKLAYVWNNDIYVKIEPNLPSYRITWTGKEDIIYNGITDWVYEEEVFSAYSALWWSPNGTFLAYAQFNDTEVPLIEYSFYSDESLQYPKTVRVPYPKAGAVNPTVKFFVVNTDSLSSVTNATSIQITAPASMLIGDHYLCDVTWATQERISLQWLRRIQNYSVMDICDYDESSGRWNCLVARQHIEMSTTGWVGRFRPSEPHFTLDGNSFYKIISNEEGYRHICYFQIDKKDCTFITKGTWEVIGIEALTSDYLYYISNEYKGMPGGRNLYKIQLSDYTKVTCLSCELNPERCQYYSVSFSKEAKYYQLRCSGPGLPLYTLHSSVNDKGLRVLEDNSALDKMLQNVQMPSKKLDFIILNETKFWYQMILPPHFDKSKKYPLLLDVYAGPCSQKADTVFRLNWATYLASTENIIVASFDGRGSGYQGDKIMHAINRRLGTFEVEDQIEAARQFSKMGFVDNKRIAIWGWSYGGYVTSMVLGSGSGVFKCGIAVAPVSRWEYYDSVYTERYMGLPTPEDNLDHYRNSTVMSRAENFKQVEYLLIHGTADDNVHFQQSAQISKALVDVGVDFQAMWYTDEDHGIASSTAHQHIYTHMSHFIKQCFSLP

DPP-IV = molecular target: T2, DPP-IV (Homo sapiens, UniProt P27487); assay: Caco-2 DPP-IV Assay (inhibition of DPP-IV activity from human colonic carcinoma cell extracts); type: biochemical; details: human Caco-2 cell extract, H-Alanine-Proline-pNA substrate, pH 7.4, room temperature, 10 minutes
T2 construct: Cell extract is prepared from cells solubilized in 10 mM Tris-HCl; host or cells: Caco-2
T2 sequence (P27487 whole entry): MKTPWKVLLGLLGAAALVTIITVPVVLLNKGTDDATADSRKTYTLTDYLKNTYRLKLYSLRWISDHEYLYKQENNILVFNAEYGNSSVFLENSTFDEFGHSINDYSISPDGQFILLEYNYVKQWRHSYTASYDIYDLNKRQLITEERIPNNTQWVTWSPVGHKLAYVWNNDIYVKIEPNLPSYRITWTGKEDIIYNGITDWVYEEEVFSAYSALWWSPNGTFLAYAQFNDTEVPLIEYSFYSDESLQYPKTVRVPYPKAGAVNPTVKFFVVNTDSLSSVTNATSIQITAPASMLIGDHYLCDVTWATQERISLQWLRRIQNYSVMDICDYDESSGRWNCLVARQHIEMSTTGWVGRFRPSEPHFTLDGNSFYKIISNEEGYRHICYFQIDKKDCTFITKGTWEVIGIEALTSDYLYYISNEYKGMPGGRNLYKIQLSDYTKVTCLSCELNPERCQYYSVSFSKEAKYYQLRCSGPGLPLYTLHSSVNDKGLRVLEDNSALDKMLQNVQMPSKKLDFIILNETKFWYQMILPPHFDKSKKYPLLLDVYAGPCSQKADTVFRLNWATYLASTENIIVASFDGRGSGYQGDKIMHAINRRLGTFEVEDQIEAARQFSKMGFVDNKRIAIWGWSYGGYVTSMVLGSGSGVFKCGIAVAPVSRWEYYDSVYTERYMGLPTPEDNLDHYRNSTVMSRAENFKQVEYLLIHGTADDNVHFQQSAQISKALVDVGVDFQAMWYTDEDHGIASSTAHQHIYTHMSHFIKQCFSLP

rat plasma DPP-IV = molecular target: T3, rat plasma DPP-IV (Rattus norvegicus, UniProt P14740); assay: rat plasma DPP-IV inhibition assay; type: biochemical; details: H-Glycine-Proline-AMC substrate, pH 7.8, room temperature, 20 min
T3 construct: DPP-IV activity in human and rat plasma; from tissue; host or cells: rat plasma
T3 sequence (P14740 37-767 limits assumed): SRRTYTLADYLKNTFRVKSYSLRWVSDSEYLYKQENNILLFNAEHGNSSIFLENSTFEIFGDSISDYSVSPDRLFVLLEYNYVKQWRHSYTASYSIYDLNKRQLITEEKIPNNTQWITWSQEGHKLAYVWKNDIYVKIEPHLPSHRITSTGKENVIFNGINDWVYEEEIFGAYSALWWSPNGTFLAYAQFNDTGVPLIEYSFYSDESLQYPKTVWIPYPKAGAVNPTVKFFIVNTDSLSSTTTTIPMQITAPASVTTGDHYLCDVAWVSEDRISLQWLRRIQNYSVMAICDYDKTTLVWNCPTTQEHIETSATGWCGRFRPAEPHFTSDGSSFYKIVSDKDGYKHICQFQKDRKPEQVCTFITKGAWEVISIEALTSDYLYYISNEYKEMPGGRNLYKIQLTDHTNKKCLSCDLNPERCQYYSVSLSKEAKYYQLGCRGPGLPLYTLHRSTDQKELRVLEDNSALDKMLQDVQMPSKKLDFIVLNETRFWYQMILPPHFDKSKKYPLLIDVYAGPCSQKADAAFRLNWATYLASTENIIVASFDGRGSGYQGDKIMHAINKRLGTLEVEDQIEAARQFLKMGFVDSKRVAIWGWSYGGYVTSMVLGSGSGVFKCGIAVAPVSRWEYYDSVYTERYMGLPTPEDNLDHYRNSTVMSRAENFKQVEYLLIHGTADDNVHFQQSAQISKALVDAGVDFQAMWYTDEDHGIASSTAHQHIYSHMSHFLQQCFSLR
Procedure: Briefly, five μl of plasma are added to 96-well flat-bottom microtiter plates (Falcon), followed by the addition of 5 μl of 80 mM MgCl2 in incubation buffer (25 mM HEPES, 140 mM NaCl, 1% RIA-grade BSA, pH 7.8). After a 5 min. incubation at room temperature, the reaction is initiated by the addition of 10 μl of incubation buffer containing 0.1 mM substrate (H-Glycine-Proline-AMC; AMC is 7-amino-4-methylcoumarin). The plates are covered with aluminum foil (or kept in the dark) and incubated at room temperature for 20 min. […] A fluorescence-concentration curve of free AMC is generated using 0-50 μM solutions of AMC in assay buffer. The curve generated is linear and is used for interpolation of substrate consumption (catalytic activity in nmoles substrate cleaved/min). As with the previous assay, the potency of the test compounds as DPP-IV inhibitors, expressed as IC50, is calculated from 8-point, dose-response curves using a 4 parameter logistic function.

insulin resistant rats = assay: early insulin response to an oral glucose challenge in insulin resistant rats; type: in vivo, Male Sprague-Dawley rats; details: 10 μmol/kg orally in CMC, high fat diet rats, oral glucose 1 g/kg 30 minutes after compound; % increase of the mean of the control animals

SMILES | IC50 (human plasma DPP-IV) [nM] | IC50 (DPP-IV) [nM] | IC50 (rat plasma DPP-IV) [nM] | Increase of Insulin Response at 10 μmol/kg (insulin resistant rats) [%]
N#C[C@@H]1CCCN1C(=O)CNCCc1ccccc1F [Ex. 42, Pyrrolidine, 1-[[2-(2-fluorophenyl)ethyl]amino]acetyl-2-cyano-, (S)--, monohydrochloride] | 140 | 240 | 180 | 
CCOc1ccc(CCNCC(=O)N2CCC[C@H]2C#N)cc1 [Ex. 16, Pyrrolidine, 1-[[2-(4-ethoxyphenyl)ethyl]amino]acetyl-2-cyano-, (S)--, monohydrochloride] | 170 | 130 | 60 | 
COc1cc(Br)c(CCNCC(=O)N2CCC[C@H]2C#N)cc1OC [Ex. 11, 1-[2-(2-bromo-4,5-dimethoxyphenyl)ethylamino]acetyl-2-cyano-(S)-pyrrolidine] |  | 215 |  | 
N#Cc1ccc(NCCNCC(=O)N2CCC[C@H]2C#N)nc1 [Ex. 3, 1-[2-[(5-cyanopyridin-2-yl)amino]ethylamino]acetyl-2-cyano-(S)-pyrrolidine dihydrochloride] |  |  |  | 66
N#C[C@@H]1CCCN1C(=O)CNCc1ccccc1Sc1ccccc1CO [Ex. 35, Pyrrolidine, 1-[[[2-[(2-hydroxymethyl)phenyl]thio]phenylmethyl]amino]acetyl-2-cyano-,(S)--, monohydrochloride] | 1090 | 130 | 340 | 
N#C[C@@H]1CCCN1C(=O)CNCCNc1nccc(Cl)n1 [Ex. 7A, 1-[2-[(4-chloropyrimidin-2-yl)amino]ethylamino]acetyl-2-cyano-(S)-pyrrolidine] |  | 165 |  | 
N#C[C@@H]1CCCN1C(=O)CNCCCN1CCCC1=O [Ex. 14, 1-[3-(2-oxo-pyrrolidin-1-yl)propylamino]acetyl-2-cyano-(S)-pyrrolidine monohydrochloride] | 95 | 110 | 24 | 
N#C[C@@H]1CCCN1C(=O)CN[C@@H]1CCN(Cc2ccccc2)C1 [Ex. 17, Pyrrolidine, 1-[(1-phenylmethyl-3-pyrrolidinyl)amino]acetyl-2-cyano-, (S)--(R)--, dihydrochloride] | 250 | 60 | 120 | 
COc1ccccc1CCNCC(=O)N1CCC[C@H]1C#N [Ex. 36, Pyrrolidine, 1-[[2-(2-methoxyphenyl)ethyl]amino]acetyl-2-cyano-, (S)--, monohydrochloride] | 170 | 160 | 80 | 
N#C[C@@H]1CCCN1C(=O)CNCCNc1ccc([N+](=O)[O-])cn1 [Ex. 8, 1-[2-[(5-nitropyridin-2-yl)amino]ethylamino]acetyl-2-cyano-(S)pyrrolidine] |  |  |  | 144
N#C[C@@H]1CCCN1C(=O)CNC1(CO)CCCC1 [Ex. 5, 1-[(1-hydroxymethylcyclopent-1-yl)amino]acetyl-2-cyano-(S)-pyrrolidine] |  |  |  | 108
CC1(C)C2CCC(CNCC(=O)N3CCC[C@H]3C#N)C1C2 (single isomer, unassigned) [Ex. 25, Pyrrolidine, 1-[[(6,6-dimethylbicyclo[3.1.1]hept-2-yl)methyl]amino]acetyl-2-cyano-[1S[1α,2α(S*),5α]]-(S)--, monohydrochloride] | 110 | 140 | 140 | 
COc1ccc(OC)c(CCNCC(=O)N2CCC[C@H]2C#N)c1 [Ex. 26, Pyrrolidine, 1-[[2-(2,5-dimethoxyphenyl)ethyl]amino]acetyl-2-cyano-. (S)--, monohydrochloride] | 240 | 170 | 70 | 
N#C[C@@H]1CCCN1C(=O)CNCCC1=CCCCC1 [Ex. 27, Pyrrolidine, 1-[[2-(1-cyclohexenyl-1-yl)ethyl]amino]acetyl-2-cyano-, (S)--, monohydrochloride] | 150 | 310 | 160 | 

The next lines start with results.

IC50 (human plasma DPP-IV) [nM] | IC50 (DPP-IV) [nM] | IC50 (rat plasma DPP-IV) [nM] | SMILES | Increase of Insulin Response at 10 μmol/kg (insulin resistant rats) [%]
170 | 150 | 60 | CN(CCCNCC(=O)N1CCC[C@H]1C#N)c1ccccc1 [Ex. 22, Pyrrolidine, 1-[[3-[(phenyl)(methyl)amino]propyl]amino]acetyl-2-cyano-, (S)--, dihydrochloride] | 
 | 990 |  | N#C[C@@H]1CCCN1C(=O)CNCCNc1ncc(C(F)(F)F)cc1Cl [Ex. 9A, 1-[2-[(3-chloro-5-trifluoromethylpyridin-2-yl)amino]ethylamino]acetyl-2-cyano-(S)-pyrrolidine] | 
280 | 150 | 60 | COc1cc(CCNCC(=O)N2CCC[C@H]2C#N)cc(OC)c1 [Ex. 46, Pyrrolidine, 1-[2-[(3,5-dimethoxyphenyl)ethyl]amino]acetyl-2-cyano-, (S)--, monohydrochloride] | 
160 | 100 | 70 | COc1ccc(CCNCC(=O)N2CCC[C@H]2C#N)cc1 [Ex. 18, Pyrrolidine, 1-[[2-(4-methoxyphenyl)ethyl]amino]acetyl-2-cyano-, (S)--, monohydrochloride] | 
 | 295 |  | N#C[C@@H]1CCCN1C(=O)CNCCNc1ncc(Cl)cc1Cl [Ex. 9C, 1-[2-[(3,5-dichloropyridin-2-yl)amino]ethylamino]acetyl-2-cyano-(S)-pyrrolidine] | 
 | 175 |  | N#C[C@@H]1CCCN1C(=O)CNCCNc1ncccc1Cl [Ex. 7B, 1-[2-[(3-chloropyridin-2-yl)amino]ethylamino]acetyl-2-cyano-(S)-pyrrolidine] | 
 | 382 |  | N#C[C@@H]1CCCN1C(=O)CNCCc1ccccc1Cl [Ex. 7D, 1-[(2-chlorophenyl)ethylamino]acetyl-2-cyano-(S)-pyrrolidine] | 
40 | 50 | 40 | COc1ccc(CCNCC(=O)N2CCC[C@H]2C#N)cc1OC [Ex. 23, Pyrrolidine, 1-[2-[(3,4-dimethoxyphenyl)ethyl]amino]acetyl-2-cyano-, (S)--, monohydrochloride] | 
80 | 650 | 90 | N#C[C@@H]1CCCN1C(=O)CNCCc1ccccn1 [Ex. 30, Pyrrolidine, 1-[[2-(2-pyridinyl)ethyl]amino]acetyl-2-cyano-, (S)--, dihydrochloride] | 
130 | 60 | 40 | N#C[C@@H]1CCCN1C(=O)CNC1CCN(Cc2ccccc2)CC1 [Ex. 66, Pyrrolidine, 1-[(1-phenylmethyl-4-piperidinyl)amino]acetyl-2-cyano-, (S)--, monohydrochloride] | 
180 | 120 | 50 | COc1cccc(CCNCC(=O)N2CCC[C@H]2C#N)c1 [Ex. 19, Pyrrolidine, 1-[[2-(3-methoxyphenyl)ethyl]amino]acetyl-2-cyano-, (S)--, monohydrochloride] | 
100 | 140 | 50 | C[C@H](NCC(=O)N1CCC[C@H]1C#N)[C@H](O)c1ccccc1 [Ex. 41, Pyrrolidine, 1-[(2-hydroxy-2-phenylethyl)amino]acetyl-2-cyano-[2S-[1R*,2S*]-monohydrochloride] | 
95 | 279 | 38 | CC(C)OCCCNCC(=O)N1CCC[C@H]1C#N [Ex. 12, 1-[3-(isopropoxy)propylamino]acetyl-2-cyano-(S)-pyrrolidine monohydrochloride] | 59
220 | 380 | 200 | N#C[C@@H]1CCCN1C(=O)CNCCc1ccc(Cl)cc1Cl [Ex. 39, Pyrrolidine, 1-[[2-(2,4-dichlorophenyl)ethyl]amino]acetyl-2-cyano-, (S), monohydrochloride] | 
 | 290 |  | N#C[C@@H]1CCCN1C(=O)CNCCNc1nccc(C(F)(F)F)n1 [Ex. 7C] | 
